What was measured:
[1] = target: D2-like dopamine receptors (Sus scrofa, UniProt A0ACM8QMZ9); conditions: porcine striatal binding, D1-like vs D2-like
[2] = target: D1-like dopamine receptors (Sus scrofa, UniProt P50130); assay type: binding; conditions: porcine striatum; for Fold D1-like Selectivity: ratio of D2-like Ki to D1-like Ki
[3] = pKa of synthetic acids, used for separation by titration; assay type: physicochemical

Chain of D1-like dopamine receptors (P50130 whole entry): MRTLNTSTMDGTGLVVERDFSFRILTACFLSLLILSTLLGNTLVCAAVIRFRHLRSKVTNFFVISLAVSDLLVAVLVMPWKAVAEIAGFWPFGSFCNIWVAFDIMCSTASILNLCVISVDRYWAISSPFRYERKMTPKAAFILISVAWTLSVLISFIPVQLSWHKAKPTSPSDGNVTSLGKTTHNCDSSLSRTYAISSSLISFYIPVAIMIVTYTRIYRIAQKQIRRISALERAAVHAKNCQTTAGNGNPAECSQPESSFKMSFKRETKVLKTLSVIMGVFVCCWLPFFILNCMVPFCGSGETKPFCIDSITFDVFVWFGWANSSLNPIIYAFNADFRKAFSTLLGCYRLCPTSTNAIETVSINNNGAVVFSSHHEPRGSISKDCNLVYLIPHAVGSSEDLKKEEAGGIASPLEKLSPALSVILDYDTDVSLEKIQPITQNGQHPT
Chain of D2-like dopamine receptors (A0ACM8QMZ9 1-443): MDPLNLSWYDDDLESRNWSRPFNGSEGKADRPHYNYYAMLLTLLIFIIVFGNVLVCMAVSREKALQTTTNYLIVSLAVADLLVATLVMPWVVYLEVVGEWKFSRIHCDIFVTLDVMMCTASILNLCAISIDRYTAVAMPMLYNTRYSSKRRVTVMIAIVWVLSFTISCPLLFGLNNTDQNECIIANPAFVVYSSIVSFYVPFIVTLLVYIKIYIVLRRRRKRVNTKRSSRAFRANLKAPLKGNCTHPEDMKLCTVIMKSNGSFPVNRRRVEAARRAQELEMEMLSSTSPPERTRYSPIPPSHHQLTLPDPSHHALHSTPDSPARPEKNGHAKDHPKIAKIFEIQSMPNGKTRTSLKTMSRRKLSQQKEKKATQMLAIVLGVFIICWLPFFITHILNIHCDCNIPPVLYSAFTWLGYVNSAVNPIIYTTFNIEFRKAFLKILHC

## Cl.NCC1CCOc2c1ccc(O)c2O (stereo not drawn) [2a, 7,8-Dihydroxy-4-aminomethylchroman hydrochloride]
[1]
  Receptor subtype selectivity: selectivity for D2-like receptors

## NC[C@@H]1O[C@H](c2ccccc2)Cc2c1ccc(O)c2O [1d, reference compound]
[2]
  Fold D1-like Selectivity: 92 fold

## NC[C@@H]1O[C@H](C23CC4CC(CC(C4)C2)C3)Cc2c1ccc(O)c2O [1c, reference compound]
[2]
  Fold D1-like Selectivity: 480 fold

## COc1cccc(C2OC(=O)CC2C(=O)O)c1OC (stereo not drawn) [compound 18, 2-(2,3-Dimethoxyphenyl)-5-oxo-tetrahydrofuran-3-carboxylic acid]
[3]
  pKa: ~3.6

## Br.NC[C@H]1C[C@@H](C23CC4CC(CC(C4)C2)C3)Cc2c1ccc(O)c2O (relative stereo) [3c, Cis-5-(aminomethyl)-7-adamantyl-5,6,7,8-tetrahydronaphthalene-1,2-diol hydrobromide]
[2]; relative to 2c
  Fold higher binding affinity at D1-like receptors compared to 2c: ~20 fold
[2]
  Fold D1-like Selectivity: 55 fold

Source: paper PMC3515654 (ChemMedChem, 2011)
